In patent US12662451B2, “Chemical compounds and uses thereof” (GLAXOSMITHKLINE INTELLECTUAL PROPERTY (NO.4) LIMITED, priority 2023, dated 2026):
Where two headings read alike, the source gives them in different places.

Columns and labels:
[1] = test system: SW48 human colorectal cancer cells (MSI-H cancer cells); assay: SW48 cell viability, CellTiter-Glo, 120 hours (Example B); conditions: for CC50: Homo sapiens
[2] = Cell culture media unbound percentage and stability by rapid equilibrium dialysis (Example C); assay type: in vitro ADME; conditions: bovine, cell assay medium (RPMI-1640 with 10% fetal bovine serum), pH 7.4, rapid equilibrium dialysis, 4 hours at 37° C., read-out: Cell Culture Media Binding (% unbound)
Method: (§1) It was observed that the compounds of the present disclosure are bound to cell assay media to various degrees, which would affect the cellular potency analysis in Example B. To measure free drug potency, concentrations used in the cell assays were corrected with the measured free fraction determined in the cell assay media. Compounds were incubated in a rapid equilibrium dialysis (RED) at a nominal concentration of 1 μM, using a dialysis buffer of phosphate-buffered saline (PBS, 100 mM sodium phosphate+150 mM sodium chloride, pH 7.4). The test compound was spiked into the medium. Aliquots were added to the donor wells of a RED plate in triplicate, and blank PBS was added to each receiver well, at volumes recommended by the manufacturer. Plates were incubated with shaking at 200 rpm for 4 hours at 37° C. The resultant samples were analysed by LC-MS/MS using a specific and sensitive method. Results were reported as analyte:internal standard peak area ratios (PARs), and the percent unbound was calculated with the following equation:
[formula] where D=the matrix dilution factor (D=1 for media); Apparent Fu=Crec/Cdon; Crec=PAR in receiver samples; Cdon=PAR in donor samples. Percent stability was calculated by:
(§2) [formula] where Cfinal=PAR in the T=240 minute sample; Cinitial=PAR in the T=0 minute sample. Cell culture media unbound percentage and calculated free drug potency of selected compounds along with their measured potency from Example B are shown in Table 3.

[3] = test system: SW48 human colorectal cancer cells; assay: Calculated free drug potency in SW48 cell assay, corrected with media free fraction (Example C); assay type: cell-based; conditions: for CC50: Homo sapiens, SW48, SW48 pCC50 corrected with measured free fraction in cell assay media
Method: as §1, §2

[4] = biological target: T1, recombinant full-length WRN protein (1-1432) (Homo sapiens, UniProt Q14191); assay: WRN unwinding activity, fluorogenic 384-well assay (Example A); assay type: biochemical; conditions: WRN unwinding activity, 4 hr; Table 2; read-out: 4 hr UNW pIC50 (converted)
T1 construct: recombinant full-length WRN protein (1-1432)
T1 sequence (Q14191 whole entry): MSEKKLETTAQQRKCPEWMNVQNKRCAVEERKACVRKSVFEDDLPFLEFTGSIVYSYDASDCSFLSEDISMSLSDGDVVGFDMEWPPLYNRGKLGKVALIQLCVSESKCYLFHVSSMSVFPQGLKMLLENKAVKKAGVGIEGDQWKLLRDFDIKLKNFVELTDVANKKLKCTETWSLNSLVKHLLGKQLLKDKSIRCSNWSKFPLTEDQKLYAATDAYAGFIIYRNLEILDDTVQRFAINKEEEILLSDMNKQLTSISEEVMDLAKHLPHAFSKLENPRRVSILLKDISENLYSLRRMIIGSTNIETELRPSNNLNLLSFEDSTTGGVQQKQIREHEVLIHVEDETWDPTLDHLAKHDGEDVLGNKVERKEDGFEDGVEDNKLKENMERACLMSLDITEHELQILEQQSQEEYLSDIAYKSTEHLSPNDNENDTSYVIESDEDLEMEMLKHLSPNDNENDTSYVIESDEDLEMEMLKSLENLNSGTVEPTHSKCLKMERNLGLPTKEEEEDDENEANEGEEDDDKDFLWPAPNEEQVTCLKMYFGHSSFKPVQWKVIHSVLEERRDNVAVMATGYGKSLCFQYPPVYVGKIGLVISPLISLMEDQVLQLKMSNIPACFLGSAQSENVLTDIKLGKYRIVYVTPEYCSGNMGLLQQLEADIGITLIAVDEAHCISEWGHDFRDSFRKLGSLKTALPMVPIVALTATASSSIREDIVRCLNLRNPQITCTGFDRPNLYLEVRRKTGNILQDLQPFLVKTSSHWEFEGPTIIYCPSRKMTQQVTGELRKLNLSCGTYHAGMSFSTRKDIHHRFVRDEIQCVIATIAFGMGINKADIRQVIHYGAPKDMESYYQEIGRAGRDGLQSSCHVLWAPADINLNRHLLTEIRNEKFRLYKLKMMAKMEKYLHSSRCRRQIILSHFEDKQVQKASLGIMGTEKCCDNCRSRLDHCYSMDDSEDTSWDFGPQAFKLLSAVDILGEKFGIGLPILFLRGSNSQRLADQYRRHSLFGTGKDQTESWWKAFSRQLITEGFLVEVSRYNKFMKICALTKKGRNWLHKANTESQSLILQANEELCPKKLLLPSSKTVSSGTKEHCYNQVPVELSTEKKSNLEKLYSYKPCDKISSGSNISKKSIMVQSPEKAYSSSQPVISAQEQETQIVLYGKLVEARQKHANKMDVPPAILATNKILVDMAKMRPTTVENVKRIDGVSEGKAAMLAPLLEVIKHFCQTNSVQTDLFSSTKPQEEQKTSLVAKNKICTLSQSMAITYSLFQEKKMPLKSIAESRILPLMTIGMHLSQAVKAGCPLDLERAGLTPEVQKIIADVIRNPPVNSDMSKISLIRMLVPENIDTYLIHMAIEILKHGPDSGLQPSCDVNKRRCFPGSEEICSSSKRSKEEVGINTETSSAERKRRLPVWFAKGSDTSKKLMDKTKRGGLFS
Procedure, shortened: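 Read-out is end-point unwinding of a fluorophore/quencher duplex (ex 525, em 598 nm) after 60 min with 200 μM ATP and 12 nM DNA (2× stocks), EDTA stop. Compound first sat 4 h with 200 pM WRN (2× stock) in pH 8.0 Tris buffer; four-parameter fit gives pIC50.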

[5] = SW48, 120 h, read-out: SW48 pCC50, SW48 cell viability, 120 hours incubation (converted), Table 2
[6] = SW48, read-out: SW48 pCC50, measured potency from Example B, as repeated in Table 3 (converted)
[7] = SW48 cell viability, 120 hours incubation, Table 2

SMILES	CC50 [1, 5] [nM]	CC50 [1, 6] [nM]	fraction unbound at 4 h, 1 µM [2]	CC50 [3] [nM]	IC50 [4] [nM]	SW48 pCC50 [1, 7]	SW48 pCC50 ([1]; measured potency from Example B, as repeated in Table 3)	Free Drug SW48 pCC50 ([3]; SW48 pCC50 corrected with measured free fraction in cell assay media)
Cc1nc2cc(S(=O)(=O)N(C)c3ccc([C@H]4CCC[C@@H](C(=O)Nc5ccc(C(F)(F)F)cc5F)[C@@H]4C(=O)O)cc3)ncc2n1C [Example 125, (1R,2R,6S)-2-((2-fluoro-4-(trifluoromethyl)phenyl)carbamoyl)-6-(4-((N,2,3-trimethyl-3H-imidazo[4,5-c]pyridine)-6-sulfonamido)phenyl)cyclohexane-1-carboxylic acid]	1580	1580	0.0433	69.2	2	–	–	–
Cc1nc2cc(S(=O)(=O)N(C)c3ccc([C@H]4CC[C@@H](C)[C@@H](C(=O)Nc5ccc(C(F)(F)F)cc5F)[C@@H]4C(=O)O)cc3)ccc2n1C (relative stereo) [Example 235, rel-(1R,2R,3R,6S)-2-((2-fluoro-4-(trifluoromethyl)phenyl)carbamoyl)-3-methyl-6-(4-((N,1,2-trimethyl-1H-benzo[d]imidazole)-5-sulfonamido)phenyl)cyclohexane-1-carboxylic acid]	251	251	0.0332	8.32	2	–	–	–
Cc1nc2cc(S(=O)(=O)N(C)c3ccc([C@H]4C[C@@H](OC(F)F)C[C@@H](C(=O)Nc5ccc(C(F)(F)F)cc5F)[C@@H]4C(=O)O)cc3)ccc2n1C (stereo in doubt) [Example 284, rel-(1R,2R,4R,6S)-4-(difluoromethoxy)-2-((2-fluoro-4-(trifluoromethyl)phenyl)carbamoyl)-6-(4-((N,1,2-trimethyl-1H-benzo[d]imidazole)-5-sulfonamido)phenyl)cyclohexane-1-carboxylic acid]	200	200	0.068	13.5	3.16	–	–	–
Cc1nc2cc(S(=O)(=O)N(C)c3ccc([C@@H]4C[C@H](N5CC[C@H](F)C5)C[C@H](C(=O)Nc5ccc(C(F)(F)F)cc5F)[C@H]4C(=O)O)cc3)ccc2n1C (stereo in doubt) [Example 378, rel-(1R*,2R*,4R*,6S*)-2-((2-fluoro-4-(trifluoromethyl)phenyl)carbamoyl)-4-((S)-3-fluoropyrrolidin-1-yl)-6-(4-((N,1,2-trimethyl-1H-benzo[d]imidazole)-5-sulfonamido)phenyl)cyclohexane-1-carboxylic acid]	3980	3980	0.208	832	50.1	–	–	–
Cc1nc2cc(S(=O)(=O)N(C)c3ccc([C@H]4CCC[C@@H](C(=O)Nc5ccc(C(F)(F)F)cc5F)[C@@H]4C(=O)O)c(F)c3)ccc2n1C (single isomer, unassigned) [Example 374]	–	398	0.113	44.7	3.98	6.4	–	–
CN1CCN(c2cc(S(=O)(=O)N(C)c3ccc([C@H]4CCC[C@@H](C(=O)Nc5ccc(C(F)(F)F)cc5F)[C@@H]4C(=O)O)cc3)cc3ccoc23)CC1 [Example 265, (1R,2R,6S)-2-((2-fluoro-4-(trifluoromethyl)phenyl)carbamoyl)-6-(4-((N-methyl-7-(4-methylpiperazin-1-yl)benzofuran)-5-sulfonamido)phenyl)cyclohexane-1-carboxylic acid]	794	794	0.115	91.2	6.31	–	–	–
CCO[C@@H]1C[C@H](c2ccc(N(C)S(=O)(=O)c3ccc4c(c3)nc(Cl)n4C)cc2)[C@@H](C(=O)O)[C@H](C(=O)Nc2ccc(C(F)(F)F)cc2F)C1 (relative stereo) [Example 361, rel-(1R,2S,4R,6R)-2-(4-((2-chloro-N,1-dimethyl-1H-benzo[d]imidazole)-5-sulfonamido)phenyl)-4-ethoxy-6-((2-fluoro-4-(trifluoromethyl)phenyl)carbamoyl)cyclohexane-1-carboxylic acid]	501	501	0.0632	31.6	1.58	–	–	–
CC(=O)N[C@@H]1C[C@@H](COc2ccc(C(F)(F)F)cc2)[C@H](C(=O)O)[C@@H](c2ccc(N(C)S(=O)(=O)c3ccc4c(c3)nc(C)n4C)cc2)C1 (single isomer, unassigned) [Example 298]	10000	–	0.151	1510	501	–	–	–
Cc1nc2cc(S(=O)(=O)N(C)c3ccc([C@H]4C[C@@H](N5CCOCC5)C[C@@H](C(=O)Nc5ccc(C(F)(F)F)cc5F)[C@@H]4C(=O)O)cc3)ccc2n1C (single isomer, unassigned) [Example 337]	–	–	0.224	–	1.58	6.8	6.8	7.45
Cc1nc2cc(S(=O)(=O)N(C)c3ccc([C@H]4C[C@@H](CS(C)(=O)=O)C[C@@H](C(=O)Nc5ccc(C(F)(F)F)cc5F)[C@@H]4C(=O)O)cc3)ccc2n1C (relative stereo) [Example 395, rel-(1R,2R,4R,6S)-2-((2-fluoro-4-(trifluoromethyl)phenyl)carbamoyl)-4-((methylsulfonyl)methyl)-6-(4-((N,1,2-trimethyl-1H-benzo[d]imidazole)-5-sulfonamido)phenyl)cyclohexane-1-carboxylic acid]	1000	1000	0.0875	87.1	1.58	–	–	–
Cc1nc2cc(S(=O)(=O)N(C)c3ccc([C@@H]4C[C@@H](N5CCC[C@@H](F)C5)C[C@H](C(=O)Nc5ccc(C(F)(F)F)cc5F)[C@H]4C(=O)O)cc3)ccc2n1C (stereo in doubt) [Example 346, rel-(1R*,2R*,4S*,6S*)-2-((2-fluoro-4-(trifluoromethyl)phenyl)carbamoyl)-4-((R)-3-fluoropiperidin-1-yl)-6-(4-((N,1,2-trimethyl-1H-benzo[d]imidazole)-5-sulfonamido)phenyl)cyclohexane-1-carboxylic acid]	10000	–	0.419	4170	3980	–	–	–
CCO[C@@H]1C[C@H](c2ccc(N(C)S(=O)(=O)c3ccc4c(c3)nc(CO)n4C)cc2)[C@@H](C(=O)O)[C@H](C(=O)Nc2ccc(C(F)(F)F)cc2F)C1 [Example 373, (1R,2R,4R,6S)-4-ethoxy-2-((2-fluoro-4-(trifluoromethyl)phenyl)carbamoyl)-6-(4-((2-(hydroxymethyl)-N,1-dimethyl-1H-benzo[d]imidazole)-5-sulfonamido)phenyl)cyclohexane-1-carboxylic acid]	100	100	0.175	17.4	1.58	–	–	–
Cc1nc2cc(S(=O)(=O)N(C)c3ccc([C@H]4C[C@H](NCC(F)(F)F)C[C@@H](C(=O)Nc5ccc(C(F)(F)F)cc5F)[C@@H]4C(=O)O)cc3)ccc2n1C (stereo in doubt) [Example 336, rel-(1R,2R,4S,6S)-2-((2-fluoro-4-(trifluoromethyl)phenyl)carbamoyl)-4-((2,2,2-trifluoroethyl)amino)-6-(4-((N,1,2-trimethyl-1H-benzo[d]imidazole)-5-sulfonamido)phenyl)cyclohexane-1-carboxylic acid]	3160	3160	0.0491	155	1.58	–	–	–
CCc1ccc(NC(=O)[C@@H]2CCC[C@H](c3ccc(N(C)S(=O)(=O)c4ccc5c(c4)nc(C)n5C)cc3)[C@H]2C(=O)O)cc1 [Example 196, (1R,2R,6S)-2-((4-ethylphenyl)carbamoyl)-6-(4-((N,1,2-trimethyl-1H-benzo[d]imidazole)-5-sulfonamido)phenyl)cyclohexane-1-carboxylic acid]	1580	1580	0.0606	95.5	3.16	–	–	–
CCO[C@@H]1C[C@H](c2ccc(N(C)S(=O)(=O)c3ccc4c(c3)ncn4C)cc2)[C@@H](C(=O)O)[C@H](C(=O)Nc2ccc(C(F)(F)F)cc2F)C1 [Example 140, (1R,2S,4R,6R)-2-(4-((N,1-dimethyl-1H-benzo[d]imidazole)-5-sulfonamido)phenyl)-4-ethoxy-6-((2-fluoro-4-(trifluoromethyl)phenyl)carbamoyl)cyclohexane-1-carboxylic acid]	158	158	0.101	15.8	2.51	–	–	–
